These are literature values, as cited in patent US4032635A, “Pharmaceutical method for the therapy of immune diseases” (Zaidan Hojin Biseibutsu Kagaku Kenkyu Kai, priority 1975, dated 1977).

In one data set the test system is histidine decarboxylase. To be noted: cited from earlier work.
The subject of data set [1] is antibody formation, anaphylaxis or contact dermatitis. To be noted: in vivo; cited from earlier work.
The test system of data set [2] is autoimmune diseases, some infection allergies and dermatological contact allergies, transplantation immunological responses. Conditions: in vivo; cited from earlier work.
Data set [3] deals with humoral and cell-mediated immunities. To be noted: cited from earlier work.
The subject of data set [4] is nucleic acid and/or protein synthesis. To be noted: cited from earlier work.
In data set [5] the test system is experimental allergic encephalomyelitis (EAE). Conditions: cited from earlier work.
In data set [6] the test system is MS and related autoimmune diseases. Conditions: long-term administration; cited from earlier work.

As for `NNC(Cc1c[nH]cn1)C(=O)O` (centres unmarked) [2-hydrazino-3-(4-imidazolyl)-propionic acid], the “inhibition of histidine decarboxylase” value in the data set with histidine decarboxylase is “inhibitor of histidine decarboxylase”. In data set [1], the “inhibition of antibody formation, anaphylaxis or contact dermatitis” value is recorded as “inhibits antibody formation, anaphylaxis or contact dermatitis”.

With `O=P1(N(CCCl)CCCl)NCCCO1` (centres unmarked) [cyclophosphamide], in data set [2], the “effectiveness in therapy of autoimmune diseases, allergies, transplantation responses” value is “effective in the therapy of autoimmune diseases, some infection allergies and dermatological contact allergies”. Further, in data set [3], the “dose at which effective / cytotoxicity” value is listed as “effective in general only at near-lethal doses owing to their cytotoxicity”; the “inhibition of humoral and cell-mediated immunities” value is “inhibit both humoral and cell-mediated immunities”. Also, the “effect on nucleic acid and/or protein synthesis” value in data set [4] is on record as “disrupt nucleic acid and/or protein synthesis”. Moreover, the “EAE after discontinuation of the drug (known agents)” value in data set [5] (after discontinuation and following a latent period) was “the animals often develop paralytic EAE”. In addition, in data set [5] (at such high doses as would cause toxicity), the “suppression of development of EAE (known agents)” value is “can suppress the development of EAE”.

`CCOc1c(N)c2c(c(OCC)c1OCC)C(C1c3c(cc4c(c3OC)OCO4)CCN1C)OC2=O` (centres unmarked) [tritoqualine]: the “inhibition of histidine decarboxylase” value in the data set with histidine decarboxylase was “inhibitor of histidine decarboxylase”. Besides, the “inhibition of antibody formation, anaphylaxis or contact dermatitis” value in data set [1] was “inhibits antibody formation, anaphylaxis or contact dermatitis”.

As to “ACTH: presently applied to patients with MS and related autoimmune diseases (SYSMEHFRWGKPVGKKRRPVKVYPNGAEDESAEAFPLEF; Corticotropin; UniProt P01189 138-176, looked up)”, the “effects in patients with MS” value in data set [6] was “effects are limited due to serious side-effects caused by long-term administration of the drug”.
